“Also recorded” adds a separate entry of the source. Read-outs that look alike come from different tables or passages of the source.

Data on 20 compounds can be found in article PMC3307704 (PLoS ONE, 2012).

For one data set, the target named is T1, Human Aβ(1–42) (Homo sapiens, UniProt P05067).
T1 construct: Human Aβ(1–42) was purchased from AnaSpec (San Jose, CA); purchased AnaSpec (San Jose, CA)
The data set can be described thus: Aβ peptide oligomerization reaction with capture ELISA for Aβ oligomer detection. Format: biochemical. To be noted: for inhibition at 1 µM: read-out: Inhibitory activity (Aβ oligomerization).

A further data set deals with Aβ aggregation. To be noted: saturation of the 7-carbon linker; cited from earlier work.
The test system of the next data set is Murine microglial cells. The data set can be described thus: Wst-1 assay (cytotoxicity). The class given is cell-based. The following applies: 24 h.
The test system of data set [1] is high-molecular weight fibrils (Aβ). To be noted: in vitro; read-out: IC50, formation of high-molecular weight fibrils; cited from earlier work.
The subject of data set [2] is Aβ deposition in aged APP(Swedish)-transgenic mice (Tg2576). To be noted: dietary supplement; cited from earlier work.
For data set [3], the system named is low-molecular weight Aβ oligomers. To be noted: in vitro; read-out: IC50, formation of low-molecular weight Aβ oligomers; cited from earlier work.
The mark [4] stands for this setting: 1 µM compound, 200 nM monomeric Aβ peptide, 37°C, 24 h, capture ELISA.

T1 sequence (P05067 672-713 limits assumed): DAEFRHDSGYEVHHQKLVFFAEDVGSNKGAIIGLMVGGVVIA

`O=C(/C=C/c1cccc(C(F)(F)F)c1)/C=C/c1cccc(C(F)(F)F)c1` [compound 17]: at Human Aβ(1–42) (setting [4]), the inhibition at 1 µM turned out to be 55%.

Regarding `O=C(/C=C/c1cccc(Cl)c1)/C=C/c1cccc(Cl)c1` [compound 15], the inhibition at 1 µM at Human Aβ(1–42) (setting [4]) was 58%.

For `CN(C)c1ccc(/C=C/C(=O)/C=C/c2ccc(N(C)C)cc2)cc1` [compound 18], the inhibition at 1 µM at Human Aβ(1–42) (setting [4]) is 54%.

Turning to `COc1cc(/C=C/C(=O)/C(Cc2ccccc2)=C(O)/C=C/c2ccc(O)c(OC)c2)ccc1O` [compound 4], the inhibition at 1 µM at Human Aβ(1–42) (setting [4]) was 51%.

`COc1cc(CCC(=O)CC(=O)CCc2ccc(O)c(OC)c2)ccc1O` [tetrahydrocurcumin]: the “Aβ aggregation inhibitory activity” value in the data set with Aβ aggregation is recorded as “abolished Aβ aggregation inhibitory activity”.

Broadly, the IC50 is the concentration needed to halve the response being measured. As to `COc1ccc(/C=C/C(=O)/C=C(O)/C=C/c2ccc(OC)c(OC)c2)cc1OC` [compound 2], in the data set with Murine microglial cells (printed as fold lower than curcumin), the “LD50 value relative to that of curcumin” value is “approximately 2 fold”. In addition, at Human Aβ(1–42), it took 150 nM to reach half-maximal inhibition (IC50) and the inhibition at 1 µM was determined as 75%. Further, at Human Aβ(1–42) (ratio of IC50 values versus curcumin), the “Improvement of Aβ aggregation inhibitory activity over curcumin” value is 6-7 fold.

For `COc1cccc(/C=C/C(=O)/C=C/c2cccc(OC)c2)c1` [compound 16], the inhibition at 1 µM on Human Aβ(1–42) (setting [4]) was found to be 56%.

Regarding `COc1cc(/C=C/C(=O)CC(=O)/C=C/c2ccc(O)c(OC)c2)ccc1O` [curcumin], the IC50 in data set [1] is 800 nM; in data set [3] it was 1000 nM. Besides, the “Effect on Aβ deposition” value in data set [2] was “reduced Aβ deposition; also recorded: significantly lowered Aβ deposition”. The “LD50 value (cytotoxicity, Wst-1)” value in the data set with Murine microglial cells was found to be 40 µM. Also, on Human Aβ(1–42), the inhibition at 1 µM came to 50%.

In the case of `COc1cc(/C=C/C(=O)/C=C/c2ccc(O)c(OC)c2)ccc1O` [compound 14], at Human Aβ(1–42), the inhibition at 1 µM is 58%.

On to `O=C(/C=C/c1ccc(O)cc1)/C=C/c1ccc(O)cc1` [compound 20], for which the inhibition at 1 µM at Human Aβ(1–42) (setting [4]) was 49%.

Turning to `COC(=O)c1ccc(/C=C/C(=O)/C=C/c2ccc(C(=O)OC)cc2)cc1` [compound 9], at Human Aβ(1–42) (setting [4]), the inhibition at 1 µM came to 66%.

Take `COc1cc(/C=C/C(=O)/C=C/c2ccccc2)ccc1O` [compound 11]: the inhibition at 1 µM on Human Aβ(1–42) (setting [4]) was 63%.

Take `O=C(/C=C/c1ccccc1)/C=C/c1ccccc1` [compound 10]: the inhibition at 1 µM at Human Aβ(1–42) (setting [4]) turned out to be 65%.

Regarding `COc1cccc(/C=C/C(=O)/C=C(O)/C=C/c2cccc(OC)c2OC)c1OC` [compound 7], on Human Aβ(1–42) (setting [4]), the inhibition at 1 µM stood at 45%.

For `COc1cc(/C=C/C(=O)/C=C/c2ccc(OC(C)=O)c(OC)c2)ccc1OC(C)=O` [compound 19], the inhibition at 1 µM at Human Aβ(1–42) (setting [4]) stood at 53%.

On to `COc1cc(/C=C/C(=O)/C(C)=C(O)/C=C/c2ccc(O)c(OC)c2)ccc1O` [compound 3], for which the inhibition at 1 µM at Human Aβ(1–42) (setting [4]) is 66%.

For the compound `COc1ccc(/C=C/C(=O)/C=C(O)/C=C/c2ccc(OC)c(O)c2)cc1O` [compound 1], the inhibition at 1 µM on Human Aβ(1–42) (setting [4]) was 80%.

Turning to `COc1ccccc1/C=C/C(=O)/C=C/c1ccccc1OC` [compound 12], the inhibition at 1 µM at Human Aβ(1–42) (setting [4]) is 63%.

With `O=C(/C=C/c1ccc(O)c(O)c1)/C=C/c1ccc(O)c(O)c1` [compound 8], the inhibition at 1 µM at Human Aβ(1–42) (setting [4]) was determined as 74%.

For `Cc1ccc(/C=C/C(=O)/C=C/c2ccc(C)cc2)cc1` [compound 13], the inhibition at 1 µM on Human Aβ(1–42) (setting [4]) amounted to 62%.
